Results as given in the NIST ThermoML archive (doi:10.1021/je060415l).

Experiment: isobaric coefficient of expansion
Conditions: Liquid, expansion method

CO [methanol]
Conditions | isobaric coefficient of expansion
225.86 K, 590 kPa | 0.00111 1/K
226.15 K, 590 kPa | 0.00112 1/K
226.16 K, 45100 kPa | 0.000962 1/K
226.17 K, 20010 kPa | 0.00104 1/K
227.72 K, 80030 kPa | 0.000861 1/K
227.95 K, 590 kPa | 0.00112 1/K
228.15 K, 590 kPa | 0.00112 1/K
228.16 K, 20010 kPa | 0.00104 1/K
228.16 K, 45100 kPa | 0.000958 1/K
230.04 K, 590 kPa | 0.00111 1/K
230.16 K, 20010 kPa | 0.00105 1/K
230.17 K, 590 kPa | 0.00112 1/K
230.17 K, 45100 kPa | 0.000957 1/K
230.17 K, 80030 kPa | 0.00086 1/K
232.14 K, 590 kPa | 0.00112 1/K
232.17 K, 20010 kPa | 0.00104 1/K
232.17 K, 45100 kPa | 0.000959 1/K
232.18 K, 590 kPa | 0.00113 1/K
232.57 K, 80030 kPa | 0.000869 1/K
234.16 K, 590 kPa | 0.00113 1/K
234.17 K, 20010 kPa | 0.00103 1/K
234.17 K, 45100 kPa | 0.000956 1/K
234.19 K, 590 kPa | 0.00112 1/K
234.98 K, 80030 kPa | 0.000859 1/K
236.16 K, 590 kPa | 0.00112 1/K
236.17 K, 20010 kPa | 0.00104 1/K
236.17 K, 45100 kPa | 0.000953 1/K
236.18 K, 590 kPa | 0.00112 1/K
237.42 K, 80030 kPa | 0.00086 1/K
238.17 K, 590 kPa | 0.00112 1/K
238.17 K, 20010 kPa | 0.00103 1/K
238.17 K, 45100 kPa | 0.000949 1/K
239.85 K, 80030 kPa | 0.000855 1/K
240.17 K, 590 kPa | 0.00112 1/K
240.17 K, 45100 kPa | 0.000949 1/K
240.25 K, 20010 kPa | 0.00103 1/K
242.17 K, 590 kPa | 0.00112 1/K
242.17 K, 45100 kPa | 0.000942 1/K
242.25 K, 20010 kPa | 0.00103 1/K
242.29 K, 80030 kPa | 0.000853 1/K
244.18 K, 590 kPa | 0.00112 1/K
244.18 K, 45100 kPa | 0.000941 1/K
244.19 K, 20010 kPa | 0.00103 1/K
244.74 K, 80030 kPa | 0.000851 1/K
246.19 K, 590 kPa | 0.00112 1/K
246.19 K, 20010 kPa | 0.00104 1/K
247.21 K, 80030 kPa | 0.000847 1/K
248.17 K, 20010 kPa | 0.00104 1/K
